We go through one molecule from publication PMC8963105, “A Novel Modulator of the Renin–Angiotensin System, Benzoylaconitine, Attenuates Hypertension by Targeting ACE/ACE2 in Enhancing Vasodilation and Alleviating Vascular Inflammation” (Frontiers in Pharmacology, 2022).

The test system of one experiment is ACE2. Description: ACE2 protein expression in HUVECs (Western blot, immunofluorescence). Type of experiment: cell-based, human. Conditions: HUVECs, 25, 50, 100 μM, 24 h. The source says:
Human umbilical vein endothelial cells (HUVECs) were isolated from umbilical cords as previously described ([Jaffe et al., 1973]). They were purchased from ATCC (cat# CRL-1444, Manassas, VA, United States) and cultured in endothelial cell medium (ECM, ScienCell, Carlsbad, CA, United States) supplemented with 5% FBS, 1% endothelial cell growth supplement, and 1% antibiotics (Sigma, St. Louis, MO, United States). Cells harvested between the third and tenth passages were used in the experiments. Cells were cultured until they were ∼80% confluent. […]
After treatment with different concentrations of BAC (Control, DMSO, 25, 50, and 100 μM, dissolved in 0.1% DMSO–DMEM) for 24 h, the cells were washed with PBS three times, fixed in 4% paraformaldehyde for 20 min, permeabilized with 0.3% Triton X-100 for 20 min, and then blocked with 5% BSA for 30 min at room temperature of 25°C. […] The samples were analyzed using a confocal laser scanning microscope (Zeiss LSM 510 META, Oberkochen, Germany).
(§1) The cell samples and tissue sample were collected and placed in ice rapidly. […] Protein concentration in cell lysates was measured using a Bio-Rad DC Protein Assay Kit […]. […]
Background: In western blotting, separated proteins are transferred to a membrane and probed.

The test system of a further experiment is Ang (1–7). Description: serum Ang (1–7) by ELISA in SHRs after 14-day oral administration. The settings on record: oral 14 days. The class given is in vivo, rat. The source says: (§2) All three MDAs (BAC, BMC, and BHC) were purchased from Nature-Standard Co., Ltd. (Shanghai, China) and their purities were all over 98%. The anti-hypertensive effects of MDAs were studied in both acute and chronic experiments. The 16-week-old SHRs were used in animal experiments, and each group had six rats. In the acute experiment, drug administration was via i.v. injection. For i.v. injection, the animals were randomly assigned into four groups: vehicle (0.1% DMSO–0.9% salt solution, n = 6), low-dose group (0.6 mg kg^−1 body weight, n = 6), medium-dose group (2 mg kg^−1 body weight, n = 6), and high-dose group (6 mg kg^−1 body weight, n = 6). The drug was administered using a venous catheter. […] Blood pressure was recorded in real time.
(§3) Blood samples were collected from the left femoral artery of rats at the end point, followed by centrifugation at 1,000 × g for 15 min at 4°C. […] The concentrations of circulating ACE, ACE2, Ang I, Ang II, Ang (1–7), TNF-α, and IL-6 in serum were measured using the ELISA kits [ACE, cat#xy-R2401c, X-Y Biotechnology, Shanghai, China; ACE2, cat#xy-ACE2-Ra, X-Y Biotechnology; Ang I, cat#xy-E12541, X-Y Biotechnology; Ang II, cat#xy-R1430c, X-Y Biotechnology; Ang (1–7), cat#xy-Ang1-7-Ra, X-Y Biotechnology; TNF-α, cat#GM1149, Servicebio, Shanghai, China; IL-6, cat#GM1154, Servicebio] according to the manufacturer’s instructions. […]
A general note: In an ELISA, binding on a coated surface is turned into a signal by an enzyme label.

The subject of another experiment is p-eNOS^Ser1177. Description: p-eNOS Ser1177 in aorta of SHRs (Western blot). The settings on record: vessel of SHRs, oral 14 days. The class given is in vivo, rat.
Excerpt: as §2, with “catheter. In chronic experiments, the animals were randomly assigned into five groups: vehicle (5% Tween 80–0.9% salt solution, n = 6), captopril group (5 mg kg^−1 body weight, n = 6), low-dose group (3 mg kg^−1 body weight, n = 6), medium-dose group (10 mg kg^−1 body weight, n = 6), and high-dose group (30 mg kg^−1 body weight, n = 6). Oral administration with drug or 5% Tween 80–0.9% salt solution was carried out once a day, and continued for 14 days.” for “catheter.”
as §1

In experiment [1] the test system is spontaneously hypertension rats (SHRs). Nature of the experiment: acute experiment: real-time blood pressure after i.v. injection in SHRs. The class given is in vivo, rat. The procedure:
The SHRs were surgically implanted with a catheter via the left femoral artery, vein, and stomach after anesthetizing with 2% pentobarbital sodium (40 mg kg^−1 i.p.,). A pressure sensor was inserted into the terminal of the arterial catheter and connected to a PowerLab system (ADInstruments, New South Wales, Australia) for real-time blood pressure monitoring.
All three MDAs (BAC, BMC, and BHC) were purchased from Nature-Standard Co., Ltd. (Shanghai, China) and their purities were all over 98%. The anti-hypertensive effects of MDAs were studied in both acute and chronic experiments. The 16-week-old SHRs were used in animal experiments, and each group had six rats. In the acute experiment, drug administration was via i.v. injection. For i.v. injection, the animals were randomly assigned into four groups: vehicle (0.1% DMSO–0.9% salt solution, n = 6), low-dose group (0.6 mg kg^−1 body weight, n = 6), medium-dose group (2 mg kg^−1 body weight, n = 6), and high-dose group (6 mg kg^−1 body weight, n = 6). The drug was administered using a venous catheter. In chronic experiments, the animals were randomly assigned into five groups: vehicle (5% Tween 80–0.9% salt solution, n = 6), captopril group (5 mg kg^−1 body weight, n = 6), low-dose group (3 mg kg^−1 body weight, n = 6), medium-dose group (10 mg kg^−1 body weight, n = 6), and high-dose group (30 mg kg^−1 body weight, n = 6). Oral administration with drug or 5% Tween 80–0.9% salt solution was carried out once a day, and continued for 14 days. The drugs were dissolved in 0.1% DMSO–0.9% salt solution for intravenous injection and in 5% Tween 80–0.9% salt solution for oral administration. Blood pressure was recorded in real time.
Real-time blood pressure level was monitored after drug treatment in the acute and chronic experiments. All animals were surgically implanted with a catheter in the left femoral artery. After connection to the monitor, all animals were placed at room temperature of 25°C for 0.5–1 h and the average blood pressure value was calculated based on a real-time blood pressure curve (10 s of every 30 s).

Another experiment has as its system Ang II. Nature of the experiment: serum Ang II by ELISA in SHRs after 14-day oral administration. Type of experiment: in vivo, rat. The settings on record: oral 14 days.
Excerpt: as §2, §3

For the molecule `CCN1CC2(COC)C(O)CC(OC)C34C5CC6(O)C(OC)C(O)C(O)(C5C6OC(=O)c5ccccc5)C(C(OC)C23)C14` (stereo not shown) [BAC, Benzoylaconitine], the “protein expression of ACE2” value in the experiment on ACE2 is “does not affect”. Also, the “level of Ang (1–7) in blood” value in the experiment on Ang (1–7) is “significantly increased”. Also, in the experiment on p-eNOS^Ser1177, the “p-eNOS^Ser1177” value is on record as “activated”. The “anti-hypertensive effect (in words)” value in experiment [1] (acute experiment, i.v. injection 0.6–6 mg kg^−1) is “observable anti-hypertensive effects”. Also, in experiment [1] (i.v. injection, 0.6 mg kg^−1), the “duration of anti-hypertensive effect” value is listed as “at least 30 min”. The “lowering of SBP, DBP, and MAP” value in experiment [1] (i.v. injection, lowest dose 0.6 mg kg^−1, 1–5 min) is recorded as “more than 20 mmHg”. In the experiment with Ang II, the “level of Ang II in blood” value is reported as “decreased”.
